# Earlier results in patent publication US10220017B2, “Liquid pharmaceutical compositions comprising SGLT-2 inhibitors” (Boehringer Ingelheim Vetmedica GmbH, priority 2015, dated 2019).
# Settings: n-octanol/water; values taken from http://www.chemicalize.org/
row,Structure (SMILES),log10P
1,CCO [ethanol],−0.16
2,"OCC(O)CO [propane-1,2,3-triol]",−1.84
3,"CC(O)CO (stereo not drawn) [propane-1,2-diol]",−0.79
